Laboratory results as given in patent US20100130598A1, “METHODS FOR INDUCING PROGRAMMED CELL DEATH” (Novogen Research Pty Ltd., priority 2008, published 2010).

How the values were obtained:
[1] = tested on: caspases-3/7, -8, and -9; test: Caspase-3/7, -8, and -9 activity assay (Caspase-Glo) on cell lysates; type: cell-based, human; settings: EOC cells, 24 h; increasing concentrations of Compound 1 or 2 μM Paclitaxel
Excerpt: Protein preparation and cellular fractionation. After drug treatment, protein was extracted and measured as previously described (Alvero et al, 2006). For separation of the cytoplasmic and mitochondrial fractions, cell pellets were processed using the ApoAlert™ Cell Fractionation Kit (BD Biosciences, San Jose, Calif.) according to the manufacturer's instructions. For separation of the cytoplasmic and nuclear fractions, pellets were processed using NE-PER Nuclear and Cytoplasmic Extraction (Pierce Biotechnology, Inc., Rockford, Ill.). Caspase-3/7, -8, and -9 activity assay. Ten μg of protein in a 50 μl total volume was mixed with 50 μl of equilibrated Caspase-Glo^10 3/7, 8, or 9 reagents (Promega). After incubating at room temperature for 1 h, luminescence was measured using TD 20/20 Luminometer (Turner Designs, Sunnyvale, Calif.). Blank values were subtracted and fold-increase in activity was determined in relation to the control non-treatment.

[2] = tested on: EOC tumors; test: Mouse EOC xenograft study; type: in vivo; settings: 3 weeks; for T/C values (maximal tumor inhibition, treated/control): intra-peritoneal, Compound 1 100 mg/kg every day, Carboplatin 40 mg/kg q×7d, Paclitaxel 10 mg/kg q×3d
Method: Mouse xenograft studies. The in vivo study as approved by the Yale University Institutional Animal Care & Use Committee. Cells (1×10^6 cells) were resuspended in 200 μ1 total volume of 50% RPMI and 50% BD Matrigel Matrix (BD Biosciences, Bedford, Mass.) and injected subcutaneously into the right flank of NCR nude mice. Intra-peritoneal therapy commenced eight days post-inoculation as follows: Paclitaxel 10 mg/kg q×3d, Carboplatin 40 mg/kg q×7d, and Compound 1 in 20% HPBCD, 100 mg/kg every day. Control groups received 20% HPBCD in PBS. Mice were treated and observed for 3 weeks. Tumor size was determined by caliper measurements and anti-tumor activity was analyzed with respect to maximal tumor inhibition (treated/control, T/C) as described previously (Kamsteeg et al, 2003).

[3] = tested on: MIAPaCa-2; test: MIAPaCa-2 pancreatic cancer xenograft; type: in vivo, Balb/c nude mice; settings: MIAPaCa-2 model; Compound 10 100 mg/kg oral qd×12, gemcitabine 20 mg/kg q3d×4, alone or combined
Method: For xenograft studies, five week old male Balb/c nude mice were maintained on an isoflavone-free diet to remove background isoflavone levels contributed by standard feed. On the day of inoculation a suspension of MIAPaCa2 or HPAC cells was prepared in DMEM (-FBS), chilled on ice and then an equal volume of matrigel (BD) was added. Mice were inoculated subcutaneously with 3×10^6 MIAPaCa2 or HPAC cells bilaterally (midway between the axillary and inguinal region) along the dorsal surface, ensuring that cells to be injected were growing at mid-end log phase. Tumor growth was monitored over 10-15 days. Compound 10 was given orally by gavage in 1% carboxy methyl cellulose (CMC) as a vehicle. Gemcitabine was injected intraperiponeally in PBS. In combination groups animals were first dosed with Compound 10 and then dosed with gemcitabine using the respective administration schedule, dosage and route of delivery stated.

[4] = tested on: MIAPaCa-2 cells; test: Apoptosis/necrosis by FACS (Annexin-V-FITC/PI), MIAPaCa-2; type: cell-based, human; settings: MIAPaCa-2, 10 μM zVAD-fmk 1 h pre-treatment; 10 μM Compound 10 or 50 ng/mL TRAIL
Method: Cells. Human pancreatic cell lines HPAC, MIAPaCa-2 and PANC-1 were obtained from the ATCC. (Manassas, Va.). The cells were maintained in DMEM media with Gln and high glucose (Mediatech, Manassas, Va.) with 10% fetal bovine serum (FBS, HyClone, Logan, Utah) and pencillin/streptomycin.
FACS Analysis. Apoptosis was measured by FACS analysis using Annexin-V-FITC and propidium iodide (PI) (Biovision, Mountain View, Calif.) as probes (Ahn et al., 2003). Mitochondrial membrane potential was measured by FACS analysis using JC-1 (Biovision) as a probe (Ahn et al., 2003). Cell cycle was analyzed on ethanol-fixed, RNaseA-treated cells staining with PI. In each spectrum, 10,000 gated events were recorded and analyzed with a FACSCalibur (BD Biosciences. San Jose, Calif.). All experiments were done in triplicate, error bars represent one standard deviation. Caspase inhibitor I (zVAD-fmk) was obtained from Calbiochem.

Molecule: CC(=O)O[C@H]1C(=O)[C@@]2(C)[C@H]([C@H](OC(=O)c3ccccc3)[C@]3(O)C[C@H](OC(=O)[C@H](O)[C@@H](NC(=O)c4ccccc4)c4ccccc4)C(C)=C1C3(C)C)[C@]1(OC(C)=O)CO[C@@H]1C[C@@H]2O [Paclitaxel, reference compound]
- caspase-3/7, -8, and -9 activities [1]: increase
- T/C values (maximal tumor inhibition, treated/control) [2]: 58%

Molecule: Nc1ccn([C@@H]2O[C@H](CO)[C@@H](O)C2(F)F)c(=O)n1 [gemcitabine, reference compound]
- % T/C (mean terminal tumor burden) [3]: 79%

Molecule: N.N.O=C([O-])C1(C(=O)[O-])CCC1.[Pt+2] [carboplatin, reference compound]
- T/C values (maximal tumor inhibition, treated/control) [2]: 58%
- toxic side effects ([2]; xenograft mice): severe weight loss and cachexia

B1: TRAIL: TRAIL (Alexis), 50 ng/mL, positive caspase-dependent control (protein, UniProt P50591 1-281, looked up)
Tumor necrosis factor ligand …: MAMMEVQGGPSLGQTCVLIVIFTVLLQSLCVAVTYVYFTNELKQMQDKYSKSGIACFLKEDDSYWDPNDEESMNSPCWQVKWQLRQLVRKMILRTSEETISTVQEKQQNISPLVRERGPQRVAAHITGTRGRSNTLSSPNSKNEKALGRKINSWESSRSGHSFLSNLHLRNGELVIHEKGFYYIYSQTYFRFQEEIKENTKNDKQMVQYIYKYTSYPDPILLMKSARNSCWSKDAEYGLYSIYQGGIFELKENDRIFVSVTNEHLIDMDHEASFFGAFLVG
- effect of zVAD-fmk pre-treatment on induced apoptosis [4]: inhibition
